The test addresses Poly [ADP-ribose] polymerase 1 (Homo sapiens, UniProt P09874). The test is described as follows: Inhibition of PARP-1 (unknown origin) using biotinylated NAD+ as substrate after 60 mins by spectrophotometry.

Usually IC50 stands for the concentration that inhibits the measured activity by half. Higher therefore signals a need for much substance.

Chain of Poly [ADP-ribose] polymerase 1 (P09874 whole entry): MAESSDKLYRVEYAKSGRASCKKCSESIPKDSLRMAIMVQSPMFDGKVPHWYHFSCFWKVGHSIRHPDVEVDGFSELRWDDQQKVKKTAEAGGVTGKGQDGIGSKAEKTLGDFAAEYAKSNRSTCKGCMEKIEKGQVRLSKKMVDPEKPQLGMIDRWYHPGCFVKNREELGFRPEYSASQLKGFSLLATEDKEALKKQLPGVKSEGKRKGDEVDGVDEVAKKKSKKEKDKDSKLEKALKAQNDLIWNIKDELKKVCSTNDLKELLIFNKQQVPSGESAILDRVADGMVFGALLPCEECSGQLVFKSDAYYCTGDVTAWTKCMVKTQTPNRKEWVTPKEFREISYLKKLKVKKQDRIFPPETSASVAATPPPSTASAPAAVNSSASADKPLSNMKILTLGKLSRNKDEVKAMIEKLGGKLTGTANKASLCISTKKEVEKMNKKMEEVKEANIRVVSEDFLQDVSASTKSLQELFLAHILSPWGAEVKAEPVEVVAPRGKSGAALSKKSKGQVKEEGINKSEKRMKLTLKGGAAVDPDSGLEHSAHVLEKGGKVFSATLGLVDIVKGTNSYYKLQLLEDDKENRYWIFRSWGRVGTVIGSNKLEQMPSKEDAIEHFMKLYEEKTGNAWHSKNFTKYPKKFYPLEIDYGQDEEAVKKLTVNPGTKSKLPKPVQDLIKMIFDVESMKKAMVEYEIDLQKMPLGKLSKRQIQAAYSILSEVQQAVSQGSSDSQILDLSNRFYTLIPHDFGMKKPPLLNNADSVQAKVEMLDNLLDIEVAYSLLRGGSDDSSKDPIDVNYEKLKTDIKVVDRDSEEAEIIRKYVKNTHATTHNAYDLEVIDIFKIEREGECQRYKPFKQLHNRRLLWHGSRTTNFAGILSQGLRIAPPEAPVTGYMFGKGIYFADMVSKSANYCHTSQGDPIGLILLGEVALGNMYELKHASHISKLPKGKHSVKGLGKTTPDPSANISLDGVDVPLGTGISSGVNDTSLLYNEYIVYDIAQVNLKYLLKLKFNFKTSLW

In turn, `CC1Cc2c(N)ccc(C(N)=O)c2O1` (stereo unspecified) had an IC50 of 4.65 µM. This counts as single-digit micromolar.

For the origin of these results see BindingDB's records for doi:10.1021/jm5002502 (St. John'S University, 2014).
